Entries after “also recorded” stand apart in the source; their conditions may differ. Read-outs that look alike come from different tables or passages of the source.
Columns and labels:
[1] = test system: neutrophils migrated to the wounded area; assay: Tail fin amputation assay: neutrophil migration to the wounded area; format: in vivo, Zebrafish (Danio rerio); details: for reduction in neutrophil migration in the presence of MZ31: GBA2 inhibitor MZ31; for migration of neutrophils towards the wounded area: wild type larvae, 4 h after tail wounding; for inhibition of neutrophil migration in Gr deficient larvae: gr mutant line (gr-/-)
Procedure: Zebrafish (Danio rerio) were maintained and handled according to the guidelines from the Zebrafish Model Organism Database (https://zfin.org/) and in compliance with the directives of the local animal welfare committee of Leiden University. To maintain circadian rhythmicity, adult fish were exposed to a 14 h light and 10 h dark cycle. Fertilization was performed by natural spawning at the beginning of the light period. Fertilized eggs were collected and raised at 28° C. in egg water (60 μg/ml Instant Ocean sea salts and 0.0025% methylene blue). The following zebrafish lines were used in this study: AB/TL wild type, the transgenic lines Tg(mpx:GFP^i114/mpeg1:mCherry^umsF001) (Bernut et al., (2014). Mycobacterium abscessus cording prevents phagocytosis and promotes abscess formation. Proc Natl Acad Sci USA 111, E943-952; Renshaw et al., (2006). A transgenic zebrafish model of neutrophilic inflammation. Blood 108, 3976-3978), and Tg(9xGCRE-HSV.UI123:EGFP)^ia20 (Benato et al., (2014). A living biosensor model to dynamically trace glucocorticoid transcriptional activity during development and adult life in zebrafish. Mol Cell Endocrinol 392, 60-72), and the mutant lines gba2^−/− (Lelieveld et al., (2019). Role of beta-glucosidase 2 in aberrant glycosphingolipid metabolism: model of glucocerebrosidase deficiency in zebrafish. J Lipid Res 60, 1851-1867) and gr^s357 (Ziv et al., (2013). An affective disorder in zebrafish with mutation of the glucocorticoid receptor. Mol Psychiatry 18, 681-691).
(§1) For the tail fin amputation experiments, 3 days post fertilization (dpf) larvae from the Tg(mpx:GFP^i114/mpeg1:mCherry^umsF001) line were anesthetized in 0.02% buffered aminobenzoic acid ethyl ester (tricaine) in egg water and placed on a 2% agarose-coated petri dish. The tails were partially amputated with a 1 mm sapphire blade (World Precision Instruments) under a Leica M165C stereomicroscope (Leica Microsystems, Wetzlar, Germany). Chemical treatment (or 0.1% DMSO as vehicle treatment) was started at 2 h before the amputation (pretreatment) and was continued for 4 h after the tail fin amputation (20 larvae per group, unless indicated otherwise), at which time point the larvae were fixed in 4% paraformaldehyde (PFA) overnight at 4° C. and stored at 4° C. until further examination. In some experiments, a 24 h treatment with miglustat, ME656 or MZ31 was started at 2 dpf, and these treatments were continued during the pretreatment and treatment with the other chemicals. For imaging of larvae from the Tg(mpx:GFP^i114/mpeg1:mCherry^umsF001) line, a LeicaMZ16FA fluorescence stereomicroscope with LAS 3.7 software was used. Neutrophils were detected by GFP fluorescence and macrophages by mCherry fluorescence. The neutrophil numbers were determined by blinded manual counting in a pre-determined area. When larvae from gba2^−/− or gr^s357mutant lines were used, neutrophil labeling was performed with the TSA fluorescein detection kit (PerkinElmer) for specific staining of Myeloperoxidase (Mpx)-positive cells, following the manufacturer's instructions.

[2] = zebrafish, in vivo
Procedure: (§3) Zebrafish embryos at 2 hpf received a chemical treatment, as indicated, with daily refreshment of the solutions, until 96 hpf. Then, the treatments were stopped and embryos were incubated in egg water until 5 dpf to avoid cross-reactivity with the compounds of the cortisol antibody used in the ELISA. Then, the treatments were stopped and replaced with egg water. At 5 dpf, the larvae were collected in an Eppendorf tube and 100 μL of ice-cold phosphate-buffered saline (PBS) was added. The larvae were homogenized using a BulletBlender® for 3 min at 8,000 rpm. Ethyl acetate was added to the homogenate and the supernatant was gathered and vaporized. A volume of 150 μl of 0.2% Bovine serum albumin (Sigma Aldrich) dissolved in phosphate-buffered saline (PBS) was added to the samples and frozen. Whole-body cortisol of the zebrafish larvae was determined by ELISA (Demeditec Diagnostics GmbH, Kiel-Wellsee, Germany), following the manufacturer's instructions. In each experiment, three biological replicates were used for each treatment group, and the colorimetric assay was performed using technical duplicates.

[3] = test system: il1b, il6, mmp9, mmp13, il8 mRNA; assay: qPCR of pro-inflammatory genes after tail wounding; format: in vivo, Zebrafish (Danio rerio)
Source text: as §1
(§2) For experiments in zebrafish, gene expression was measured using 3 dpf embryos. Groups of 15 larvae were collected in TRIzol reagent (Invitrogen) and mRNA was isolated using the miRNeasy mini kit (Qiagen), according to the manufacturer's instructions. For experiments in HeLa cells, samples were collected from a single well from 6 well plates (80% confluent) in TRIzol reagent and mRNA was isolated using the RNeasy mini kit. Zebrafish and cells samples were treated with DNAse utilizing the DNA-Free™ kit (Ambion). The cDNA synthesis was performed using iScript cDNA synthesis kit (Bio-Rad) using 1 μg of RNA per sample. For qPCR, 10 μM of forward and 10 μM of reverse primer, 12.5 μL of iQ SYBR Green Supermix (Bio-Rad), and 2 μL of cDNA were added to the qPCR reaction mixture. […] The qPCR reactions were performed on a MyiQ-single-color real-time PCR detection system (Bio-Rad) with initial denaturation for 3 min at 95° C. and 40 cycles of 15 s at 95.5° C., 15 s at 60° C., and 30 s at 72° C. Cycle threshold values (Ct values, i.e. the cycle numbers at which a threshold value of the fluorescence intensity was reached) were determined for each sample. The gene expression level for each sample was normalized using the expression of ppial (peptidylprolyl isomerase Ab (cyclophilin A)) for zebrafish samples, and 18S rRNA for human cells. The fold change per sample (compared to the respective control group) was calculated using the ΔΔCt method.

[4] = test system: Gr target genes fkbp5, pck1 and nfkbiaa; assay: qPCR of Gr target genes fkbp5, pck1, nfkbiaa; format: in vivo, Zebrafish (Danio rerio)
Procedure: as §2

[5] = zebrafish, in vivo; remark: listed apart in the source
Procedure: (§4) Zebrafish embryos at 2 hpf received a chemical treatment, as indicated, with daily refreshment of the solutions, until 5 dpf. At 5 dpf, the larvae were collected in an Eppendorf tube and 100 μL of ice-cold glucose buffer was added to each sample. The larvae were homogenized using a BulletBlender® for 3 min at 8,000 rpm. The homogenates were then centrifuged at 4° C. for 8 min at 11000 rpm and the supernatant was stored at −20° C. Whole-body glucose concentrations were determined using a Glucose Colorimetric Assay kit (Cayman Chemical, USA), according to the manufacturer's instructions. In each experiment, three biological replicates were used for each treatment group, and the colorimetric assay was performed using technical duplicates.

[6] = molecular target: T1, human GR (Homo sapiens, UniProt P04150); assay: PolarScreen Glucocorticoid Receptor Competitor Assay; details: glucosylation or gentiobiosylation of Pdn
T1 sequence (P04150 1-777): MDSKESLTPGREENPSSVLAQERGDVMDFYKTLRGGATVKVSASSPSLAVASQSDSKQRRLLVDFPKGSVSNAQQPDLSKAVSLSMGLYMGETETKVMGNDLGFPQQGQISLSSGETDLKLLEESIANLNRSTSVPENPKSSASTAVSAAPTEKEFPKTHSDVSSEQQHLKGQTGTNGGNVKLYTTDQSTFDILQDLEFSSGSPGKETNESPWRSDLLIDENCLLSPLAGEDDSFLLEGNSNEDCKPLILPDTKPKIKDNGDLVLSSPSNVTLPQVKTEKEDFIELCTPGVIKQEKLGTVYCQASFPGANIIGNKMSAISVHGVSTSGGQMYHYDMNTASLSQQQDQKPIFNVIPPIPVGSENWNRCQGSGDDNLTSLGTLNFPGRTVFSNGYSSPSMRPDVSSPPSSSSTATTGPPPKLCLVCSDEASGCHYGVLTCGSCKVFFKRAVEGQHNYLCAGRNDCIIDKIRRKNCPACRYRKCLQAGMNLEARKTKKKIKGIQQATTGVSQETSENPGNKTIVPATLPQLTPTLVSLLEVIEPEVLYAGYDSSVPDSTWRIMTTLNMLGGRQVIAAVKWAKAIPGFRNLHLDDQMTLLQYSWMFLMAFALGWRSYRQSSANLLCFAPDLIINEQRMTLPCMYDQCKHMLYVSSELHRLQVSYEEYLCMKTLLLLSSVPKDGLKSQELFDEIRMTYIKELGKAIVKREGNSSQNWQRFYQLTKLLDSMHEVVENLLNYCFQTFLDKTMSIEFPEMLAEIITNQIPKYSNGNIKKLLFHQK

[7] = test system: Gr; assay: Transactivation activity of Gr in Tg(9xGCRE-HSV.UI23:EGFP) reporter line; format: in vivo, Zebrafish (Danio rerio); details: 24 h treatment, 3 dpf larvae
Procedure: The Tg(9xGCRE-HSV.UI23:EGFP)^ia20 zebrafish reporter line expresses enhanced green fluorescent protein (EGFP) under the control of a promoter containing an array of nine GREs. To study the effect of chemical treatments on the transactivation activity of the Gr, 15 zebrafish embryos per group (2 dpf) were treated with the indicated compounds for 24 hours. The transactivation activity of Gr induced by the treatments was assessed using a LeicaMZ16FA fluorescence stereomicroscope supported by LAS 3.7 software. The integrated intensity of the EGFP signal in the larvae was determined using ImageJ software.

[8] = Whole-body cortisol measurement using ELISA; details: 5 dpf larvae treated from 2 hpf, non-wounded
Procedure: as §3

[9] = test system: macrophages migrated to the wounded area; assay: Tail fin amputation assay: macrophage migration; format: in vivo, Zebrafish (Danio rerio); details: wild type larvae, 4 h after wounding
Procedure: Zebrafish (Danio rerio) were maintained and handled according to the guidelines from the Zebrafish Model Organism Database (https://zfin.org/) and in compliance with the directives of the local animal welfare committee of Leiden University. To maintain circadian rhythmicity, adult fish were exposed to a 14 h light and 10 h dark cycle. Fertilization was performed by natural spawning at the beginning of the light period. Fertilized eggs were collected and raised at 28° C. in egg water (60 μg/ml Instant Ocean sea salts and 0.0025% methylene blue). […]
For the tail fin amputation experiments, 3 days post fertilization (dpf) larvae from the Tg(mpx:GFP^i114/mpeg1:mCherry^umsF001) line were anesthetized in 0.02% buffered aminobenzoic acid ethyl ester (tricaine) in egg water and placed on a 2% agarose-coated petri dish. […] For imaging of larvae from the Tg(mpx:GFP^i114/mpeg1:mCherry^umsF001) line, a LeicaMZ16FA fluorescence stereomicroscope with LAS 3.7 software was used. Neutrophils were detected by GFP fluorescence and macrophages by mCherry fluorescence. The neutrophil numbers were determined by blinded manual counting in a pre-determined area. […]

[10] = Whole-body glucose measurement in larvae; details: 5 dpf larvae treated from 2 hpf, non-wounded
Procedure: as §4

[11] = test system: regenerated tail fin; assay: Regeneration of the tail fin after wounding; format: in vivo, Zebrafish (Danio rerio); details: 5 dpf larvae, wounded at 2 dpf
Procedure: When the regeneration of the tail fins after wounding or the larval body length was used as a readout, chemical treatments of the embryos were started at 2 hours post fertilization (hpf) and continued until 5 dpf. During this period, solutions were refreshed daily. At 5 dpf, larvae were imaged using a LeicaMZ16FA fluorescence stereomicroscope supported by LAS 3.7 software, and the length of the larvae was measured using ImageJ software (15 larvae per treatment group). For the regeneration experiments, tail fins were amputated at 2 dpf and larvae were imaged at 5 dpf (15 larvae per treatment group). The newly grown tissue can be distinguished from the old tissue, enabling precise measurement of the size of the newly grown tissue using ImageJ software.

whole body cortisol level under wounding conditions with MZ31 [2] | whole body glucose level [5] | whole body glucose level under wounding conditions with MZ31 [5] | decrease in the binding affinity relative to Pdn [6] [fold] | whole body glucose level [10] | tissue regeneration (length of regenerated tail fin) [11] | Compound | reduction in neutrophil migration in the presence of MZ31 [1] | migration of neutrophils towards the wounded area [1] | whole body cortisol level [2] | expression of the pro-inflammatory genes il1b, il6 and il8 [3] | expression of Gr target genes fkbp5, pck1 and nfkbiaa [4] | transactivation activity of Gr (GFP signal in GRE:GFP reporter fish line) [7] | inhibition of neutrophil migration in Gr deficient larvae [1] | whole body cortisol level [8] | wounding-induced increase in expression of il1b, il6, mmp9 and mmp13 [3] | migration of macrophages [9] | wounding-induced increase in expression of il1b, il6 and mmp9 [3]
reduced upon treatment with MZ31 | did not increase the glucose level | reduced upon treatment with MZ31 | ~30 | – | – | C[C@]12C=CC(=O)C=C1CC[C@@H]1[C@@H]2[C@@H](O)C[C@@]2(C)[C@H]1CC[C@]2(O)C(=O)CO[C@@H]1O[C@H](CO)[C@@H](O)[C@H](O)[C@H]1O [GPdn, 21-O-Glucose-Prednisolone] | independent of GBA2 activity | inhibited the neutrophil migration | only slightly reduced the cortisol concentrations | these effects were similar to those observed upon Pdn and GPdn treatment | lack of effect | neither GPdn nor GbPdn induced the transactivation activity of the Gr | – | – | – | – | –
– | – | – | – | did not increase the glucose level | – | C[C@@H]1C[C@H]2[C@@H]3CCC4=CC(=O)C=C[C@]4(C)[C@@]3(F)[C@@H](O)C[C@]2(C)[C@@]1(O)C(=O)CO[C@@H]1O[C@H](C(=O)O)[C@@H](O)[C@H](O)[C@H]1O [GDex, dexamethasone-glucuronide] | independent of GBA2 activity | inhibits neutrophil migration; also recorded: inhibited the neutrophil migration | – | – | did not induce the transactivation activity of the Gr | did not induce the transactivation activity of the Gr | absent | very minor decrease in cortisol level; also recorded: only slightly reduced the cortisol concentrations | strongly reduced | without any effect on macrophage migration | –
– | – | – | – | increased the glucose concentration | decrease | C[C@H]1C[C@H]2[C@@H]3CCC4=CC(=O)C=C[C@]4(C)[C@@]3(Cl)[C@@H](O)C[C@]2(C)[C@@]1(O)C(=O)CO [Bec, beclomethasone] | – | decreases the migration of neutrophils; also recorded: inhibits neutrophil migration; also recorded: inhibited the neutrophil migration | – | – | – | large increase in GFP signal | absent | decrease in cortisol level; also recorded: decreased the cortisol level; also recorded: significantly larger decrease | – | leaves the migration of macrophages unaffected | strongly suppressed

Source: patent publication US20260158149A1, “GLYCOSYLATED PRODRUGS” (UNIVERSITEIT LEIDEN, priority 2021, published 2026)
